# Assay results published in patent US20080318943A1, “Compounds and Uses Thereof - 848” (ASTRAZENECA AB, priority 2007, published 2008).
# pKi: −log10 of the molar value.
# What was measured:
# GABAA receptor α2β3γ2 = target: T1, GABAA receptor α2β3γ2 (Homo sapiens, UniProt P18507+P47869); test: Two-electrode voltage-clamp potentiation of GABA EC10 current in Xenopus oocytes, GABAA2; assay type: cell-based; details: percentage potentiation of GABA EC10 current divided by that of diazepam
# T1 construct: expressed in transfected cells; host or cells: Xenopus laevis oocytes injected with cRNA
# Method in brief: (§1)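 Human GABAA receptors expressed in Xenopus oocytes by cRNA injection (α:β:γ molar ratio ~1:1:10 for α1β2γ2, 1:1:1 for α2β3γ2), recorded 2-10 days later by two-electrode voltage clamp at −60 mV in ND-96, pH 7.5. Modulator preapplied 30 s before GABA at per-oocyte EC10. Peak-current percent potentiation over GABA alone, normalised to diazepam.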
# GABAA receptor α1β2γ2 = target: T2, GABAA receptor α1β2γ2 (Homo sapiens, UniProt P14867+P18507); test: Two-electrode voltage-clamp potentiation of GABA EC10 current in Xenopus oocytes, GABAA1; assay type: cell-based; details: percentage potentiation of GABA EC10 current divided by that of diazepam
# T2 construct: expressed in transfected cells; host or cells: Xenopus laevis oocytes injected with cRNA
# Method in brief: as §1
# [1] = target: T3, GABAA2 receptors (α2, β3, γ2 receptor subunits transfected into Sf9 cells) (Homo sapiens, UniProt P18507+P47869); test: GABAA2 Binding Method ([3H]-Flunitrazepam displacement); details: [3H]-Flunitrazepam ~2 nM, α2β3γ2 Sf9 membranes, 1 hr at 4° C.
# T3 construct: host or cells: Sf9 cells (membranes)
# Method in brief: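 Membranes from Sf9 cells expressing α2β3γ2 GABAA receptors incubated with ~2 nM (final) [3H]-flunitrazepam and test compound 1 h at 4 °C, then filtered on GF/B plates with cold-buffer washes. Flumazenil-defined controls; percent of control, IC50 and Ki calculated.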
# T1 sequence (P47869 29-451): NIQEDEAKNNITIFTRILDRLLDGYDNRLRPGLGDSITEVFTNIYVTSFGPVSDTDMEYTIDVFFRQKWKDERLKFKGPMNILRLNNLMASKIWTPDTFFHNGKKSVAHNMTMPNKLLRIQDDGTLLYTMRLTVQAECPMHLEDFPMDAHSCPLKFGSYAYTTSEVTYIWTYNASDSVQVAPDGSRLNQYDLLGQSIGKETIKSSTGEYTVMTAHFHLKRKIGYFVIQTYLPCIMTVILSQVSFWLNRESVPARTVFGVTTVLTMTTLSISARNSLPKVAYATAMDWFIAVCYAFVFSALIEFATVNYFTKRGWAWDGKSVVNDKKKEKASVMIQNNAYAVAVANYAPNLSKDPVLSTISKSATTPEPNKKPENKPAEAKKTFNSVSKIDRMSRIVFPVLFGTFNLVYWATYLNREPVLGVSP
# T1 sequence (P28472 26-473 partner): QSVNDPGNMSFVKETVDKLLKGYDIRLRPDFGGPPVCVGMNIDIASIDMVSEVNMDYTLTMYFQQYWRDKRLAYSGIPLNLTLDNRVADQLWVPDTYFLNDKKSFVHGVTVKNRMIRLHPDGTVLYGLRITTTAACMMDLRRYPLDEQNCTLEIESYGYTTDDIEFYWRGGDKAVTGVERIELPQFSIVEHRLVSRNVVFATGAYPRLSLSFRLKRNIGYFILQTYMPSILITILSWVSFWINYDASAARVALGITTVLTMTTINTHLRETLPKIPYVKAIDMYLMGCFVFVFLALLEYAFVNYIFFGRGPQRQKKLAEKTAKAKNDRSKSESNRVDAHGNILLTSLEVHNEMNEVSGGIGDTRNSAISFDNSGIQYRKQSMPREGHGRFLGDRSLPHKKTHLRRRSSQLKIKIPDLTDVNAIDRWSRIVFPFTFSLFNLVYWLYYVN
# T1 sequence (P18507 40-475): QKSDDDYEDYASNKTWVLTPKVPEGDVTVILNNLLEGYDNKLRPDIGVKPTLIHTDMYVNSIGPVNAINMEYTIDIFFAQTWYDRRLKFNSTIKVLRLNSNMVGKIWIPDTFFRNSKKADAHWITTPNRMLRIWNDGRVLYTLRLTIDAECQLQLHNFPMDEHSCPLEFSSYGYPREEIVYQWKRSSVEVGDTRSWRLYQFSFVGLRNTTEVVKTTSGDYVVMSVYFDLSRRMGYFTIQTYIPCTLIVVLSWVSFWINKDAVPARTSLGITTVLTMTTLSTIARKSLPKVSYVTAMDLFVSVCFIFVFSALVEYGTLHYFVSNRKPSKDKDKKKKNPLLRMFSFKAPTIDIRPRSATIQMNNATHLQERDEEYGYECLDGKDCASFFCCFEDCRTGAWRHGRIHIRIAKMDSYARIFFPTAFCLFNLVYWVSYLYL
# T3 sequence (P47869 29-451): as the sequence (P47869 29-451) above
# T3 sequence (P28472 26-473 partner): as the sequence (P28472 26-473 partner) above
# T3 sequence (P18507 40-475): as the sequence (P18507 40-475) above
# T2 sequence (P14867 28-456): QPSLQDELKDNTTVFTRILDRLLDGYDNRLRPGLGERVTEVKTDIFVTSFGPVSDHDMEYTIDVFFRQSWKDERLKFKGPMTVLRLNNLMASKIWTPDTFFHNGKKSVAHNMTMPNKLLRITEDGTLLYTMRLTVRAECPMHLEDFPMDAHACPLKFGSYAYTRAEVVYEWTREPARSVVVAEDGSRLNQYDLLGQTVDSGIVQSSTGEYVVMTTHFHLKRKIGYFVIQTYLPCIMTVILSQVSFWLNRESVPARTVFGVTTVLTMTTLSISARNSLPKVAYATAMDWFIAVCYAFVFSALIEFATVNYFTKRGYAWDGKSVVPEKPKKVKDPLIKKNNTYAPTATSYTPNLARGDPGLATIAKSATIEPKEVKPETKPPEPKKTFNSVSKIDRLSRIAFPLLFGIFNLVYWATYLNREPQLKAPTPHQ
# T2 sequence (P47870 25-512 partner limits assumed): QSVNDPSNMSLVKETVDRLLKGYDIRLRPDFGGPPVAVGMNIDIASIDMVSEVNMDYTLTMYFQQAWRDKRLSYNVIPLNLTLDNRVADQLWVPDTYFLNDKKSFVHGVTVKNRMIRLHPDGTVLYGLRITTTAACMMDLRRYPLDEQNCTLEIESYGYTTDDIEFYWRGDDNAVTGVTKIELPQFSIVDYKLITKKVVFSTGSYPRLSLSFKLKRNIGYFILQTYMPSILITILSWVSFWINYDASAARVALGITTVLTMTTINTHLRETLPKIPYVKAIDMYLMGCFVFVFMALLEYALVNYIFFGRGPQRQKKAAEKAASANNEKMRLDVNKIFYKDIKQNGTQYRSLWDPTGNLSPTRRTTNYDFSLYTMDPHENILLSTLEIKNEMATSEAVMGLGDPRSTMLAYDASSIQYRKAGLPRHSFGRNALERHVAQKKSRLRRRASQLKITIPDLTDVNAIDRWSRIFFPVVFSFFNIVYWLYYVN
# T2 sequence (P18507 40-475): as the sequence (P18507 40-475) above
SMILES,Relative Potentiation for GABAA2 (GABAA receptor α2β3γ2),Relative Potentiation for GABAA1 (GABAA receptor α1β2γ2),pKi [1]
"COc1ccc(-c2cccc3c(N)c4c(nc23)CN(C2CCC2)C4=O)cn1 [9-Amino-2-cyclobutyl-5-(6-methoxypyridin-3-yl)-2,3-dihydropyrrolo[3,4-b]quinolin-1-one]",0.14,−0.035,8.19
"Cc1cc(-c2cccc3c(N)c4c(nc23)CN(C2CCC2)C4=O)cnc1F [9-Amino-2-cyclobutyl-5-(6-fluoro-5-methylpyridin-3-yl)-2,3-dihydropyrrolo[3,4-b]quinolin-1-one]",0.2,0.018,8.07
"Cc1ccc(-c2cccc3c(N)c4c(nc23)CN(C2CCC2)C4=O)nc1 [9-Amino-2-cyclobutyl-5-(5-methylpyridin-2-yl)-2,3-dihydropyrrolo[3,4-b]quinolin-1-one]",0.13,0.088,7.90
"Nc1c2c(nc3c(-c4ccc(F)cc4F)cccc13)CN(C1CC1)C2=O [9-Amino-2-cyclopropyl-5-(2,4-difluorophenyl)-2,3-dihydropyrrolo[3,4-b]quinolin-1-one]",0.14,0.018,7.70
"Cc1nc(F)ccc1-c1cccc2c(N)c3c(nc12)CN(C1CCC1)C3=O [9-Amino-2-cyclobutyl-5-(6-fluoro-2-methylpyridin-3-yl)-2,3-dihydropyrrolo[3,4-b]quinolin-1-one]",0.31,0.13,8.62
"COc1ccncc1-c1c(F)ccc2c(N)c3c(nc12)CN(C1CC1)C3=O [Example 41, 9-Amino-2-cyclopropyl-6-fluoro-5-(4-methoxypyridin-3-yl)-2,3-dihydropyrrolo[3,4-b]quinolin-1-one]",0.28,0.13,8.63
"CCCN1Cc2nc3c(-c4ccc(C)nc4)cccc3c(N)c2C1=O [Example 10, 9-Amino-5-(6-methylpyridin-3-yl)-2-propyl-2,3-dihydropyrrolo[3,4-b]quinolin-1-one]",0.19,0.092,7.04
"COc1ccc(CN2Cc3nc4c(-c5c(F)cccc5OC)cccc4c(N)c3C2=O)cc1OC [Example 65, 9-Amino-2-(3,4-dimethoxybenzyl)-5-(2-fluoro-6-methoxyphenyl)-2,3-dihydropyrrolo[3,4-b]quinolin-1-one]",0.2,0.092,8.57
COc1cccc(F)c1-c1cccc2c(N)c3c(nc12)CN([C@H]1C[C@@H](C)C1)C3=O,0.39,0.054,9.02
"CCN1Cc2nc3c(-c4ccc(OC)c(OC)c4)cccc3c(N)c2C1=O [Example 29, 9-Amino-2-ethyl-5-(3,4-dimethoxyphenyl)-2,3-dihydropyrrolo[3,4-b]quinolin-1-one]",0.19,0.07,7.67
"COc1cc(-c2cccc3c(N)c4c(nc23)CN(C2CCC2)C4=O)c(OC)nn1 [Example 84, 9-Amino-2-cyclobutyl-5-(3,6-dimethoxypyradazin-4-yl)-2,3-dihydropyrrolo[3,4-b]quinolin-1-one]",0.42,0.088,9.13

# Next, values leading:
Relative Potentiation for GABAA2 (GABAA receptor α2β3γ2),Relative Potentiation for GABAA1 (GABAA receptor α1β2γ2),pKi [1],SMILES
0.26,0.079,7.67,"CCN1Cc2nc3c(-c4cnccc4OC)cccc3c(N)c2C1=O [Example 57, 9-Amino-2-ethyl-5-(4-methoxypyridin-3-yl)-2,3-dihydropyrrolo[3,4-b]quinolin-1-one]"
0.37,0.22,7.71,"CCCN1Cc2nc3c(-c4ccc(C)nc4F)cccc3c(N)c2C1=O [9-amino-5-(2-fluoro-6-methylpyridin-3-yl)-2-propyl-2,3-dihydro-1H-pyrrolo[3,4-b]quinolin-1-one]"
0.2,−0.047,8.81,"COc1ccccc1-c1c(F)ccc2c(N)c3c(nc12)CN(C1CCC1)C3=O [9-Amino-2-cyclobutyl-6-fluoro-5-(2-methoxyphenyl)-2,3-dihydropyrrolo[3,4-b]quinolin-1-one]"
0.3,0.31,7.20,"CCCN1Cc2nc3c(-c4cccc(OC)c4)cccc3c(N)c2C1=O [9-amino-5-(3-methoxyphenyl)-2-propyl-2,3-dihydro-1H-pyrrolo[3,4-b]quinolin-1-one]"
0.17,−0.11,7.85,"CCN1Cc2nc3c(-c4ccccc4C#N)cccc3c(N)c2C1=O [Example 25, 2-(9-Amino-2-ethyl-1-oxo-2,3-dihydro-1H-pyrrolo[3,4-b]quinolin-5-yl)-benzonitrile]"
0.26,0.062,8.38,"COc1cccc(-c2cccc3c(N)c4c(nc23)CN(C2CCC2)C4=O)c1F [9-Amino-2-cyclobutyl-5-(2-fluoro-3-methoxyphenyl)-2,3-dihydropyrrolo[3,4-b]quinolin-1-one]"
0.19,−0.04,8.58,"COc1ccc(-c2c(F)ccc3c(N)c4c(nc23)CN(C2CCC2)C4=O)cn1 [9-Amino-2-cyclobutyl-6-fluoro-5-(6-methoxypyridin-3-yl)-2,3-dihydropyrrolo[3,4-b]quinolin-1-one]"
0.38,−0.018,8.44,"COc1cccc(F)c1-c1cccc2c(N)c3c(nc12)CN(C1CC1)C3=O (atropisomer, axis not shown; (P))"
0.17,0.054,7.56,"CCN1Cc2nc3c(-c4cc(F)ccc4OC)cccc3c(N)c2C1=O [9-Amino-2-ethyl-5-(5-fluoro-2-methoxyphenyl)-2,3-dihydropyrrolo[3,4-b]quinolin-1-one]"
0.21,−0.043,8.26,"COc1cccc(C#N)c1-c1cccc2c(N)c3c(nc12)CN(C1CCC1)C3=O [2-(9-Amino-2-cyclobutyl-1-oxo-2,3-dihydro-1H-pyrrolo[3,4-b]quinolin-5-yl)-3-methoxybenzonitrile]"
